Test results taken from patent US20150218120A1 (The Regents of the University of California, priority 2011, published 2015).
“And” between values parts separate entries of the source, which are not always exact repeats. Equal values may be shown once. Read-outs that look alike come from different tables or passages of the source.

How the values were obtained:
[1] = target: T1, HIV-1 IN (Human immunodeficiency virus type 1 group M subtype B, UniProt P12497); assay: HIV-1 IN 3′-processing (3P) gel-based catalytic assay; type: biochemical; design: made in house
Excerpt: As described above, HIV-1 IN has two functions: 3′-processing (3P) and strand transfer (ST).
Gels were dried and reaction products were visualized and quantified with a Typhoon 8600 (GE Healthcare, Little Chalfont, Buckinghamshire, UK).

[2] = target: T1, HIV-1 IN; assay: HIV-1 IN strand transfer (ST) gel-based catalytic assay; type: biochemical; design: made in house; settings: for IC50: Strand Transfer IC50, 32P-end labeled oligonucleotides in solution, gel-based separation
Excerpt: As described above, HIV-1 IN has two functions: 3′-processing (3P) and strand transfer (ST). […] All 21 RCD compounds were screened for inhibitory activity against the 3P and ST reactions using published protocols (Metifiot M, et al., Biochemistry 49:3715-3722 (2010); Marchand C, Neamati N, & Pommier Y, Methods Enzymol 340:624-633 (2001)).
Some assays use preassembled HIV-1 IN on immobilized oligonucleotides (Pace P, et al., J. Med. Chem. 50(9):2225-2239 (2007)), whereas the assay provided herein uses ^32-P-end labeled oligonucleotides in solution and gel-based separation of the reaction products.
Recombinant HIV-1 IN and oligonucleotide substrates were obtained as previously reported (Marinello et al. Biochemistry 2008, 47, 9345-9354; Metifiot et al. Antimicrob. Agents Chemother. 2011, 55, 5127-5133; Hare et al. Mol. Pharmacol. 2011, 80, 565-572). Integrase reactions were performed in 10 μL total volume including 400 nM HIV-1 IN, 20 nM 5′-end [^32P]-labeled oligonucleotide substrate, and 1 μL inhibitor solution in 50 mM MOPS, pH 7.2, 7.5 mM MgCl2, and 14.3 mM 2-mercaptoethanol Inhibitor dilutions were in DMSO, and DMSO without drug was used as a control. Reactions were incubated at 37° C. for 60 min, terminated by adding 10 μL loading dye (10 mM EDTA, 98% deionized formamide, 0.025% xylene cyanol, and 0.025% bromophenol blue), and were subjected to electrophoresis in 20% polyacrylamide-7 M urea gels. Gels were dried and reaction products were visualized and quantified with a Typhoon 8600 (GE Healthcare, Little Chalfont, Buckinghamshire, UK).

[3] = target: T1, HIV-1 IN; settings: read-out: IC50 against the strand transfer reaction of HIV-1 IN, reported value; Pace et al. 2007; preassembled IN on immobilized oligonucleotides; cited from earlier work
[4] = tested on: HIV; assay: microbe, parasite or virus in culture; type: cell-based; settings: read-out: Antiviral Activity IC50
Description: (§1) In addition to cell-free in vitro assays, eight RCD compounds were examined for inhibition of viral replication (Table 1) (Day J R, et al., J. Virol. Meth. 137(1):125-133 (2006)).
Computational docking was preformed using the Glide software package (Glide v5.5; Schrodinger, Inc.). Enzyme and cell-based assays were performed as previously described (Metifiot M, et al., Biochemistry 49:3715-3722 (2010); Marchand C, Neamati N, & Pommier Y, Methods Enzymol 340:624-633 (2001); Day J R, et al., J. Virol. Meth. 137(1):125-133 (2006)). Complete synthetic and experimental details are provided herein.

[5] = tested on: P4R5 cells; assay: Toxicity assay on P4R5 cells; type: cell-based; settings: at a concentration of 10 μM
Excerpt: as §1

[6] = Human immunodeficiency virus 1, P4/R5, P4R5 cells

| Structure (SMILES) | IC50 ([1]; read-out: 3'-Processing IC50) [µM] | IC50 [2] | further results |
| --- | --- | --- | --- |
| Cc1occ(O)c(=O)c1C(=O)NCc1ccc(F)cc1 | > 100 | 56 ± 7 µM |  |
| Cc1nc(C(=O)NCc2ccc(F)cc2)c(O)c(=O)[nH]1 [RCD-1, N-(4-Fluorobenzyl)-5-hydroxy-2-methyl-6-oxo-1,6-dihydropyrimidine-4-carboxamide] |  | ~1 µM and 1 µM | IC50 [1]: > 100 µM; Selectivity for ST versus 3P reaction ([2]; ST versus 3P): selectivity for the ST versus 3P reaction; IC50 [3]: 60 nM |
| Cn1ccc(=O)c(O)c1C(=O)NCc1ccc(F)cc1 [RCD-2] | > 100 | > 100 µM |  |
| Cc1cc(=O)c(O)c(C(=O)NCc2ccc(F)cc2)n1C [RCD-3] | > 100 | > 100 µM |  |
| O=C(NCc1ccc(F)cc1)c1occc(=O)c1O [RCD-4] | > 100 | 0.96 µM |  |
| Cc1cc(=O)c(O)c(C(=O)NCc2ccc(F)cc2)o1 [RCD-5] | 59.5 ± 1.4 | 0.55 µM and < 15 µM |  |
| O=C(NCc1ccc(F)cc1)c1cccc(=O)n1O [RCD-7] | > 100 | 19.7 ± 1.6 µM |  |
| O=C(NCc1ccc(F)cc1)c1cccc(O)c1O [RCD-8, N-(4-Fluorobenzyl)-2,3-dihydroxybenzamide] | > 100 | 39.4 ± 4 µM |  |
| COc1cccc(C(=O)NCc2ccc(F)cc2)c1O [RCD-9, N-(4-Fluorobenzyl)-2-hydroxy-3-methoxybenzamide] | > 100 | > 100 µM | Strand transfer activity in words ([2]; concentrations as high as 100 μM): complete loss of activity |
| CNC(=O)c1ccc(C(=O)NCc2ccc(F)cc2)c(O)c1O [RCD-10, N1-(4-Fluorobenzyl)-2,3-dihydroxy-N4-methylterephthalamide] |  | 1.5 µM and < 15 µM and < 2 µM | IC50 [1]: > 200 µM; IC50 [4, 6]: < 4 µM; IC50 ([4]; P4R5 cells): 4 µM |
| O=C(NCc1ccc(F)cc1)c1ccc(C(=O)NCc2ccc(F)cc2)c(O)c1O [RCD-11, N1,N4-Bis(4-fluorobenzyl)-2,3-dihydroxyterephthalamide] | > 300 | 1.7 µM and < 2 µM |  |
| O=C(NCc1ccc(F)cc1)c1ccc2cccnc2c1O [RCD-12] |  |  | IC50 [4, 6]: < 4 µM; IC50 ([4]; P4R5 cells): 2.3 µM |
| O=C(NCc1ccc(F)cc1)c1ccc2cccc(O)c2n1 [RCD-13, N-(4-Fluorobenzyl)-8-hydroxyquinoline-2-carboxamide] | > 100 | > 100 µM | IC50 [4, 6]: > 100 µM; inhibition at 100 µM ([2]; read-out: Strand transfer inhibition): < 30% |
| O=C(NCc1ccc(F)cc1)c1ccc2ccc[n+]([O-])c2c1O [RCD-14, 7-((4-Fluorobenzyl)carbamoyl)-8-hydroxyquinoline 1-oxide] |  | 3.8 ± 0.3 µM | IC50 [1]: 40.5 ± 2 µM; Toxicity on P4R5 cells [5]: some toxicity |
| O=C(NCc1ccc(F)cc1)c1ccccc1O [RCD-15, N-(4-Fluorobenzyl)-2-hydroxybenzamide] | > 100 | > 100 µM |  |
| O=C(O)c1cccc(C(=O)NCc2ccc(F)cc2)[n+]1[O-] [RCD-16, 2-Carboxy-6-((4-fluorobenzyl)carbamoyl)pyridine 1-oxide] | 21.4 ± 3 | 9.2 ± 1.3 µM |  |
| O=C(NCc1ccc(F)cc1)c1cccc(C(=O)NCc2ccc(F)cc2)[n+]1[O-] [RCD-17, 2,6-Bis((4-fluorobenzyl)carbamoyl)pyridine 1-oxide] |  | > 100 µM | IC50 [1]: > 300 µM; IC50 [4, 6]: > 100 µM |
| CNC(=O)c1cccc(C(=O)NCc2ccc(F)cc2)c1O [RCD-18, N1-(4-Fluorobenzyl)-2-hydroxy-N3-methylisophthalamide] |  | > 300 µM | IC50 [1]: > 300 µM; IC50 [4, 6]: > 100 µM |
| O=C(NCc1ccc(F)cc1)c1cccc(C(=O)NCc2ccc(F)cc2)c1O [RCD-19, N1,N3-Bis(4-fluorobenzyl)-2-hydroxyisophthalamide] | > 300 | > 300 µM |  |
